The test system of series [1] is Leukotriene D4 induced respiratory constriction. Kind of series: Leukotriene D4 induced respiratory constriction test. The series is classed as in vivo. As to conditions: p.o. 1 hr before i.v. LTD4; anesthetized Hartley male guinea pigs; respiratory inner pressure. How it is done: Leukotriene D4 Induced Respiratory Constriction Test
Respiratory constriction was measured by modifying the method of Konzett and Rossler (Arch. Exp. Pathol. Pharmakol., 195, pp. 71-74 (1940)). Hartley male guinea pigs (400 to 500 g body weight, Nippon SLC Co.) were anesthetized with pentobarbital (50 mg/kg, s.c.), and a cannula was inserted into the trachea to carry out artificial ventilation with an artificial ventilator (manufactured by Harvard Co., Model 683). An inner pressure of the respiratory tract was measured by a differential pressure transducer (Nihon Koden, TP-603T) connected to the respiratory cannula and it is used as an index of respiratory constriction.
LTD4 (0.03, 0.06, 0.13, 0.25, 0.5, 1 and 2 μg/kg, Sigma Co.) was intravenously administered from a cannula inserted into the right jugular vein from a low dose with an interval of 5 minutes to cause a respiratory constriction reaction and an increased amount of a respiratory inner pressure was measured. Test compound was suspended in 0.5% sodium carboxymethyl cellulose aqueous solution, and orally administered 1 hour before administration of LTD4. Animals were fasted for 24 hours before administration of the Test compound.
A2=(Dose of Compound administered)/{(ED50 of group to which Compound was added)/(ED50 of control group)−1}

The target in series [2] is T1, Leukotriene D4 receptor (Cavia porcellus, UniProt Q2NNR5).
T1 construct: As a receptor sample, a lung cell membrane fraction from guinea pigs was used; from tissue; host or cells: lung membrane fraction of Hartley male guinea pigs
T1 sequence (Q2NNR5 1-340): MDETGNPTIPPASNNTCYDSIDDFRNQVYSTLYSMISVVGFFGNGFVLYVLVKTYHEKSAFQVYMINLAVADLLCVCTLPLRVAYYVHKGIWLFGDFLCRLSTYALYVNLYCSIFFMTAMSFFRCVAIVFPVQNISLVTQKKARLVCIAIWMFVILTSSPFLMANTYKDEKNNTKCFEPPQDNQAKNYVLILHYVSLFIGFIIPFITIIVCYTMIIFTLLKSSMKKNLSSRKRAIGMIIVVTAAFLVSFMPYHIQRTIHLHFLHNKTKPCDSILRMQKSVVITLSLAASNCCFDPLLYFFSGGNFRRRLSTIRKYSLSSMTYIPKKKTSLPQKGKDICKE
As to the kind of experiment: Leukotriene D4 receptor binding test. As to conditions: binding inhibition constant (Ki) vs [3H] LTD4 0.2 nM, lung cell membrane fraction from guinea pigs, 25° C. for 30 minutes; for Ki: read-out: pKi value (converted). How it is done: Leukotriene D4 Receptor Binding Test
As a receptor sample, a lung cell membrane fraction from guinea pigs was used. Preparation of the membrane fraction was carried out according to the method of Ahn et al. (Eur. J. Pharmacol., 127, 153-155 (1986)). Lungs of Hartley male guinea pigs (400 to 500 g body weight, Nippon SLC Co.) were extracted, and perfused with a physiological saline, and then, adding 10 mM of PIPES, 10 mM of MgCl2 and 10 mM of CaCl2 buffer (pH 7.5) to the lung tissue and the mixture was homogenized. This homogenate was centrifuged at 70,000 xg for 10 minutes to obtain a membrane fraction.
Leukotriene D4 (LTD4) recepter binding test was carried out according to the method of Aharony, et al. (J. Pharmacol. Expl.Ther., 243, 921-926 (1987)). To 0.42 mg of the receptor sample were added 10 mM of PIPES, 10 mM of MgCl2 and 10 mM of CaCl2 buffer (pH 7.5) to make the total amount of 480 μl, and 10 μl of [^3H] LTD4 (NEN Life Science Products Co.) and 10 μl of a Test compound in dimethylsulfoxide were added to the mixture, and the resulting mixture was incubated at 25° C. for 30 minutes. The mixtures thus incubated were filtered through a glass fiber filter (Whatman Co., GF/C) using cell harvester (Brandel Co., M-30R). The filter were washed with 10 mM of Tris. and 100 mM of NaCl buffer (pH 7.5), and 5 ml of a liquid scintillator (NACALAI TESQUE INC., clearsol I), and radioactivity was measured by a liquid scintillation analyzer (Packard Co., 2000CA). When a dissociation constant (Kd) of LTD4 was to be obtained, [^3H] LTD4 with 0.03 to 0.5 nM was used, and 1 μM of non-radioactive LTD4 was added. When a binding inhibition constant (Ki) of the Test compound is to be meaured, [^3H] LTD4 with 0.2 nM was used. Kd and Ki are calculated according to the method of Bennett et al. (Neurotransmitter Receptor Binding, 2nd ed., edited by H. I. Yamamura et al., pp. 61-89, Raven Press (1985)).

What is called melting point is the temperature, or range, at which the solid turns liquid. As for `O=C(O)C(F)(F)F.O=C(O)CC1(CSC2c3cc(/C=C/c4ccc5cc(F)c(F)cc5n4)ccc3OCc3c(F)cccc32)CC1` (centres unmarked) [Example 3, {1-[[2-[(E)-2-(6,7-difluoro-2-quinolinyl)ethenyl]-7-fluoro-6,11-dihydrodibenz[b,e]oxepin-11-yl]thiomethyl]cyclopropyl}acetic acid trifluoroacetic acid salt], the melting point lay in the range of 174 to 179 °C. In series [1], the “A2 (dose of Test compound required for shifting two-times the LTD4 dose-reaction curve of control group to higher dose side)” value worked out at 3.6 µg/kg. The Ki in series [2] is 0.158 nM.
For `O=C([O-])CCSC1c2ccccc2COc2ccc(/C=C/c3ccc4cc(F)c(F)cc4n3)cc21.[Na+]` (centres unmarked) [Example 5 (b), Sodium 3-{[2-[(E)-2-(6,7-difluoro-2-quinolinyl)ethenyl]-6,11-dihydrodibenz[b,e]oxepin-11-yl]thio}propionate] the same measures were 213 to 216 °C, 2.6 µg/kg and 0.251 nM.
In the same order, the values of `O=C([O-])CC1(CSC2c3ccccc3COc3ccc(/C=C/c4ccc5cc(F)c(F)cc5n4)cc32)CC1.[Na+]` (centres unmarked) [Example 7 (b), Sodium {1-[[2-[(E)-2-(6,7-difluoro-2-quinolinyl)ethenyl]-6,11-dihydrodibenz[b,e]oxepin-11-yl]thiomethyl]cyclopropyl}acetate] are 137 to 139 °C, 3.5 µg/kg and 0.2 nM.
In the same order, the values of `O=C(O)CCSC1c2cc(/C=C/c3ccc4cc(F)c(F)cc4n3)ccc2OCc2c(F)cccc21` (centres unmarked) [Example 12, 3-{[2-[(E)-2-(6,7-difluoro-2-quinolinyl)ethenyl]-7-fluoro-6,11-dihydrodibenz[b,e]oxepin-11-yl]thio}propionic acid] are 224 to 227 °C, 4.9 µg/kg and 0.158 nM.
`N#Cc1cccc2c1COc1ccc(/C=C/c3ccc4cc(F)c(F)cc4n3)cc1C2SCCC(=O)[O-].[Na+]` (centres unmarked) [Example 13 (b), Sodium 3-{[7-cyano-2-[(E)-2-(6,7-difluoro-2-quinolinyl)ethenyl]-6,11-dihydrodibenz[b,e]oxepin-11-yl]thio}propionate] had a melting point of 179 to 182 °C. Moreover, the “A2 (dose of Test compound required for shifting two-times the LTD4 dose-reaction curve of control group to higher dose side)” value in series [1] stood at 7.8 µg/kg. Moreover, in series [2], the Ki was 0.631 nM.
Regarding `O=C([O-])CCSC1c2cc(/C=C/c3ccc4cc(F)c(F)cc4n3)ccc2OCc2c1cccc2C(F)(F)F.[Na+]` (centres unmarked) [Example 14, Sodium 3-{[2-[(E)-2-(6,7-difluoro-2-quinolinyl)ethenyl]-7-trifluoromethyl-6,11-dihydrodibenz[b,e]oxepin-11-yl]thio}propionate], in series [1], the “A2 (dose of Test compound required for shifting two-times the LTD4 dose-reaction curve of control group to higher dose side)” value turned out to be 4.4 µg/kg. The Ki in series [2] is 0.631 nM.
`C#Cc1cccc2c1COc1ccc(/C=C/c3ccc4cc(F)c(F)cc4n3)cc1C2SCCC(=O)[O-].[Na+]` (centres unmarked) [Example 15, Sodium 3-{[2-[(E)-2-(6,7-difluoro-2-quinolinyl)ethenyl]-7-ethynyl-6,11-dihydrodibenz[b,e]oxepin-11-yl]thio}propionate] yielded a melting point of 186 to 189 °C. Further, the “A2 (dose of Test compound required for shifting two-times the LTD4 dose-reaction curve of control group to higher dose side)” value in series [1] stood at 0.8 µg/kg. Also, the Ki in series [2] was 0.158 nM.
For `C[C@@H](CSC1c2ccccc2COc2ccc(/C=C/c3ccc4ccc(F)cc4n3)cc21)C(=O)[O-].[Na+]` (stereo partly drawn) [Example 19, Sodium 3-{[2-[(E)-2-(7-fluoro-2-quinolinyl)ethenyl]-6,11-dihydrodibenz[b,e]oxepin-11-yl]thio}-2-(R)-methylpropionate] the same measures were 195 to 205 °C, 2.4 µg/kg and 0.2 nM.
The compound `C[C@@H](CSC1c2ccccc2COc2ccc(/C=C/c3ccc4ccc(Cl)cc4n3)cc21)C(=O)[O-].[Na+]` (stereo partly drawn) [Example 23, Sodium 3-{[2-[(E)-2-(7-chloro-2-quinolinyl)ethenyl]-6,11-dihydrodibenz[b,e]oxepin-11-yl]thio}-2-(R)-methylpropionate] had a melting point of 207 to 217 °C. For the same compound, in series [1], the “A2 (dose of Test compound required for shifting two-times the LTD4 dose-reaction curve of control group to higher dose side)” value came out at 5.7 µg/kg. The Ki in series [2] was 0.501 nM.
`O=C([O-])CCSC1c2ccccc2COc2ccc(/C=C/c3ccc4c(F)cc(F)cc4n3)cc21.[Na+]` (centres unmarked) [Example 32 (b), Sodium 3-{[2-[(E)-2-(5,7-difluoro-2-quinolinyl)ethenyl]-6,11-dihydrodibenz[b,e]oxepin-11-yl]thio}propionate]: the melting point was in the range of 210 to 213 °C. In addition, the “A2 (dose of Test compound required for shifting two-times the LTD4 dose-reaction curve of control group to higher dose side)” value in series [1] was 9.4 µg/kg. In series [2], the Ki is 0.794 nM.
For `O=C([O-])CCSC1c2ccccc2COc2ccc(/C=C/c3ccc4c(F)c(F)c(F)cc4n3)cc21.[Na+]` (centres unmarked) [Example 34 (b), Sodium 3-{[2-[(E)-2-(5,6,7-trifluoro-2-quinolinyl)ethenyl]-6,11-dihydrodibenz[b,e]oxepin-11-yl]thio}propionate] the same measures were 235 to 237 °C, 7.7 µg/kg and 0.631 nM.
In the case of `O=C([O-])CCCC1c2ccccc2COc2ccc(/C=C/c3ccc4cc(F)c(F)cc4n3)cc21.[Na+]` (centres unmarked) [Example 51 (c), Sodium 4-[2-[(E)-2-(6,7-difluoro-2-quinolinyl)ethenyl]-6,11-dihydrodibenz[b,e]oxepin-11-yl]butanoate], the “A2 (dose of Test compound required for shifting two-times the LTD4 dose-reaction curve of control group to higher dose side)” value in series [1] was found to be 3.6 µg/kg. Besides, the Ki in series [2] was 0.158 nM.
For `CC(C)(CC(=O)O)SC1c2ccccc2COc2ccc(/C=C/c3ccc4cc(F)c(F)cc4n3)cc21` (centres unmarked) [Example 58, 3-{[2-[(E)-2-(6,7-difluoro-2-quinolinyl)ethenyl]-6,11-dihydrodibenz[b,e]oxepin-11-yl]thio}-3-methylbutanoic acid] the same measures were 6.4 µg/kg and 0.501 nM.
Regarding “Sodium [2-[(E)-2-(6,7-difluoro-2-quinolinyl)ethenyl]-6,11-dihydrodibenz[b,e]oxepin-11-yl]thioacetate [Example 4]”, the “A2 (dose of Test compound required for shifting two-times the LTD4 dose-reaction curve of control group to higher dose side)” value in series [1] came out at 3.7 µg/kg. The compound also returned a pKi value in series [2] of 9.8.

The values above are taken from patent publication US20030216571A1, “Tricyclic compounds” (priority 1999, published 2003).
